The record followed here is ChEMBL document CHEMBL1201862, “PubChem BioAssay data set” (2004).

Among the targets are Cytochrome P450 2C9 (Homo sapiens, UniProt P11712); Cytochrome P450 3A4 (Homo sapiens, UniProt P08684); Cytochrome P450 2D6 (Homo sapiens, UniProt P10635).
The target of test [1] is G-protein coupled receptor 55 (Homo sapiens, UniProt Q9Y2T6). Put plainly: GPR55 agonists via beta-arrestin recruitment, primary screen, imaging, U2OS cells, beta-arrestin-GFP redistribution (AID 1961). Format: functional. (In general: Arrestin recruitment assays detect the binding of arrestin to an activated receptor.)
Test [2] can be described thus: growth suppression of beta-catenin-knockout colon cells, dose response, cell-based, HCT116, human colon tumor (AID 1045).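 Also: HCT116 colon tumor cells with beta catenin knocked out; cells exposed to compound for 60 hours.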 The format is functional.
The nature of test [3]: growth suppression of PTEN-null colon cells, dose response, cell-based, HCT116 PTEN knockout (AID 1047).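 Also: HCT116 colon tumor cells with PTEN knocked out; cells exposed to compound for 60 hours before readout; potency for loss of cell viability measured by luminescence.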 Format: functional.

Each structure is given as a SMILES string. Activity calls are given as the source filed them.

Sequence of Cytochrome P450 2D6 (P10635 whole entry): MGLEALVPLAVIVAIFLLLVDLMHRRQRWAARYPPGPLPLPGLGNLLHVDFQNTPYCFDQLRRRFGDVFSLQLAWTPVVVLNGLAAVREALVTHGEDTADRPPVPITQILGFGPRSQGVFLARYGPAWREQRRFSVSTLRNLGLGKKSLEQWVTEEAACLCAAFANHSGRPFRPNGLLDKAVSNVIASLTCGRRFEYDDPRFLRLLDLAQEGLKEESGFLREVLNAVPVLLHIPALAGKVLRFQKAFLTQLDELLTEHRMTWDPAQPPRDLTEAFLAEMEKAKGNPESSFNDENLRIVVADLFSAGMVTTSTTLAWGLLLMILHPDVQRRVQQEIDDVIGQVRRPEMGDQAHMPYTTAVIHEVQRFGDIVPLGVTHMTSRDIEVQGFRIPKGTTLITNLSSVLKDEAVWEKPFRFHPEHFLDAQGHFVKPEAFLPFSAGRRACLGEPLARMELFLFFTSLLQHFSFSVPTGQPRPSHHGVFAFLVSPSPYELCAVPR
Sequence of Cytochrome P450 2C9 (P11712 whole entry): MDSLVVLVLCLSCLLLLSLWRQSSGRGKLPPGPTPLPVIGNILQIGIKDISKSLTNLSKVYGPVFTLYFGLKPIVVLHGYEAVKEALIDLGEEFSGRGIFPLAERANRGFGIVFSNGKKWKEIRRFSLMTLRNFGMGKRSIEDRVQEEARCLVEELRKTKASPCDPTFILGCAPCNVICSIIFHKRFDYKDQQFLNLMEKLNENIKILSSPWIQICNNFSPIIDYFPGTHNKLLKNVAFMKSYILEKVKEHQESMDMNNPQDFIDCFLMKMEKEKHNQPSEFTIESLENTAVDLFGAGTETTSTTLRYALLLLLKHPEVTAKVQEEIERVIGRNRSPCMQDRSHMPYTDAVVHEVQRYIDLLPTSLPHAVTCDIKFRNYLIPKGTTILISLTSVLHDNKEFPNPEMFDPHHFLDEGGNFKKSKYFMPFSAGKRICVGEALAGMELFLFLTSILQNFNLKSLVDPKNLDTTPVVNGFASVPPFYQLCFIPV
Sequence of G-protein coupled receptor 55 (Q9Y2T6 whole entry): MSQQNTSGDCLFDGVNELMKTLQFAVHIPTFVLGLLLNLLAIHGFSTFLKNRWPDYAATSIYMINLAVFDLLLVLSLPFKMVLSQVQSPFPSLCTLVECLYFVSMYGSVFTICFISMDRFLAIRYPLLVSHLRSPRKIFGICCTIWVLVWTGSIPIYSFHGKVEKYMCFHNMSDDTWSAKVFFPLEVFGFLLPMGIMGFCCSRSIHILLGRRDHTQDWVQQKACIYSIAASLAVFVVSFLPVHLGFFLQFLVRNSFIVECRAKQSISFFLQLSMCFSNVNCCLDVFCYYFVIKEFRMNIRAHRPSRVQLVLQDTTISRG
Sequence of Cytochrome P450 3A4 (P08684 whole entry): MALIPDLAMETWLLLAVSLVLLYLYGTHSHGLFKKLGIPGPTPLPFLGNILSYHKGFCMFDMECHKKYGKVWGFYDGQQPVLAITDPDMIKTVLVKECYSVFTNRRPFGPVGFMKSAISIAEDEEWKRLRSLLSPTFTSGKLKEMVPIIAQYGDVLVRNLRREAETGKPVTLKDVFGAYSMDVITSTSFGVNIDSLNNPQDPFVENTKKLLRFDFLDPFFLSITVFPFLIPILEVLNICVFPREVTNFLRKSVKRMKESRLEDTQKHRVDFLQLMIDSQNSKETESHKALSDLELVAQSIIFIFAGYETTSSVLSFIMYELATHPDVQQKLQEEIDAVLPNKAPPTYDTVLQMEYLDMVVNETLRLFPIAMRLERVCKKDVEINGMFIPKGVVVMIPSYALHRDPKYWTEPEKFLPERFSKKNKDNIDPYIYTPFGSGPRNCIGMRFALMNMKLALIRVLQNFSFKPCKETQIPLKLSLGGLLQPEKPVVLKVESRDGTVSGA

By AC50 is commonly meant the midpoint of the concentration-response curve, whichever way the signal moves. By EC50 is commonly meant the concentration that produces a half-maximal response. Take `COc1ccccc1/C=C/C(=O)c1ccc(Cl)cc1`: the half-maximal activity concentration (AC50) at Cytochrome P450 2C9 was 22.4 µM (inconclusive); at Cytochrome P450 3A4, 28.2 µM (inconclusive); on Cytochrome P450 2D6 it was 15.8 µM (inconclusive). The EC50 in test [1] is 25.5 µM (inactive); in test [2], 21.8 µM (active); in test [3], 23.5 µM (active).
